Data reported in patent publication US12643847B2, “Treprostinil derivatives and compositions and uses thereof” (CORSAIR PHARMA, INC., priority 2015, dated 2026).

Experiments:
PAH patients = details: inhaled form; cited from earlier work
[1] = treprostinil as the free acid, cited from earlier work
[2] = Human plasma stability assay (Test 2); type: in vitro ADME; details: half-life in heparinated human plasma, 0.5 μM test compound, 37° C.; read-out: Test 2 T1/2
Experimental: (Test 2) Human plasma stability assay was conducted by incubating 0.5 μM test compound at 37° C. for up to 120 min in heparinated human plasma. At 0, 5, 15, 30, 60, 120 and […], an aliquot was taken and quenched with internal standard-containing stop solution. After incubation, the samples were analyzed by LC-MS/MS. Peak area ratios of analyte to internal standard were used to calculate the half-life.

[3] = Human liver microsomal stability assay (Test 1); type: in vitro ADME; details: half-life in human liver microsomes, 0.5 μM test compound, 37° C., up to 45 min, NADPH-generating system, pH 7.4; read-out: Test 1 T1/2
Experimental: (Test 1) Human liver microsomal stability assay was conducted by incubating 0.5 μM test compound at 37° C. for up to 45 minutes in 50 mM potassium phosphate buffer (pH 7.4) containing 0.5 mg of microsomal protein and 50 μL of NADPH-generating system (7.8 mg of glucose 6-phosphate, 1.7 mg of NADPH and 6 U of glucose 6-phosphate dehydrogenase per mL in 2% w/v of sodium bicarbonate). At 0, 5, 15, 30 and 45 min, an aliquot was taken and quenched with internal standard-containing stop solution. No co-factor controls at 45 min were prepared. After incubation, the samples were analyzed by LC-MS/MS. Peak area ratios of analyte to internal standard were used to calculate the intrinsic clearance. The intrinsic clearance (CLint) was determined from the first-order elimination constant by non-linear regression.

[4] = Human skin homogenate stability assay (Test 3); type: in vitro ADME; details: half-life in human skin homogenate, 0.5 μM test compound, 37° C., up to 45 min, NADPH-generating system, pH 7.4; read-out: Test 3 T1/2
Experimental: At 0, 5, 15, 30 and 45 min, an aliquot was taken and quenched with internal standard-containing stop solution. No co-factor controls at 45 min were prepared. After incubation, the samples were analyzed by LC-MS/MS. Peak area ratios of analyte to internal standard were used to calculate the intrinsic clearance. The intrinsic clearance (CLin t) was determined from the first-order elimination constant by non-linear regression.

Structure (SMILES)	PAH patients who cannot take inhaled treprostinil due to irritation (PAH patients)	absolute oral bioavailability ([1]; oral)	systemic half-life ([1]; due to significant metabolism)	half-life at 0.5 μM [2]	half-life at 0.5 μM [3]	half-life at 0.5 μM [4]
CCCCC[C@H](O)CC[C@@H]1[C@H]2Cc3cccc(OCC(=O)O)c3C[C@H]2C[C@H]1O [Compound A, Treprostinil]	about 50%	less than 10%	very short	–	–	–
CCCCC[C@H](O)CC[C@@H]1[C@H]2Cc3cccc(OCC(=O)O[C@H](C)C(=O)O)c3C[C@H]2C[C@H]1O [II-2]	–	–	–	> 1 h	0.517 to 1 h	> 1 h
CCCCC[C@H](O)CC[C@@H]1[C@H]2Cc3cccc(OCC(=O)O)c3C[C@H]2C[C@H]1OC(=O)CCCC [Ia-3]	–	–	–	> 1 h	< 0.25 h	> 1 h
CCCCC[C@H](O)CC[C@@H]1[C@H]2Cc3cccc(OCC(=O)O)c3C[C@H]2C[C@H]1OC(=O)CC [Compound Ia-1]	–	–	–	> 1 h	< 0.25 h	> 1 h
CCCCCC(O)CCC1C(O)CC2Cc3c(cccc3OCC(=O)OCCC(=O)O)CC21 (stereo not drawn) [II-4, 3-{2-[2-hydroxy-1-(3-hydroxyoctyl)-2,3,3a,4,9,9a-hexahydro-1H-cyclopenta[b]naphthalen-5-yloxy]acetoxy}propionic acid]	–	–	–	> 1 h	0.25 to 0.5 h	> 1 h
CCCCC[C@H](O)CC[C@@H]1[C@H]2Cc3cccc(OCC(=O)O)c3C[C@H]2C[C@H]1OC(=O)COCC [Ia-9]	–	–	–	> 1 h	< 0.25 h	> 1 h
CCCCC[C@H](O)CC[C@@H]1[C@H]2Cc3cccc(OCC(=O)O)c3C[C@H]2C[C@H]1OC(=O)OC [Compound Ia-10, [1-(3-hydroxyoctyl)-2-methoxycarbonyloxy-2,3,3a,4,9,9a-hexahydro-1H-cyclopenta[b]naphthalen-5-yloxy]acetic acid]	–	–	–	> 1 h	< 0.25 h	> 1 h
CCCCC[C@H](O)CC[C@@H]1[C@H]2Cc3cccc(OCC(=O)OCC(=O)O)c3C[C@H]2C[C@H]1O [II-1]	–	–	–	> 1 h	0.517 to 1 h	> 1 h
CCCCC[C@@H](CC[C@@H]1[C@H]2Cc3cccc(OCC(=O)O)c3C[C@H]2C[C@H]1O)OC(=O)COC [Compound Ib-8, {2-hydroxy-1-[3-(2-methoxyacetoxy)octyl]-2,3,3a,4,9,9a-hexahydro-1H-cyclopenta[b]naphthalen-5-yloxy}acetic acid]	–	–	–	> 1 h	< 0.25 h	> 1 h
